Reference: patent US20100272675A1, “METHOD OF ADMINISTERING CONJUGATES” (ENDOCYTE, INC., priority 2007, published 2010)

Key:
[1] = test system: 4T1c2 cells (a breast tumor cell line); assay: Effect of ligand conjugates on tumor volume for mice with breast tumor implants; assay type: in vivo
Method: Two regimens were tested. In the first regimen, six to eight-week old (˜20-22 grams) female Balb/c mice were immunized with fluorescein isothiocyanate (FITC)-labeled keyhole limpet hemocyanin (KLH; see FIG. 5) at 35 μg/dose using a saponin adjuvant (e.g., GPI-0100; 100 μg/dose) at days 1, 15, and 29. On day 23, each animal was injected with 2.5×10^5 4T1c2 cells (a breast tumor cell line). Cancer loci were then allowed to grow. From days 42-60, all animals were injected daily ((qd×5)3; days 42-46, 49-53, and 56-60) with either phosphate buffered saline (PBS) or 500 nmol/kg of FITC-conjugated to folic acid via a gamma carboxyl-linked ethylene diamine bridge (see FIG. 4). The animals were injected on the same days with 20,000 U/dose of recombinant human IL-2. The animals were injected (TIW)3 with IL-2 in the same weeks as the animals were injected with folate-FITC.
In the second regimen, six to eight-week old (˜20-22 grams) female Balb/c mice were immunized with fluorescein isothiocyanate (FITC)-labeled keyhole limpet hemocyanin (KLH) at 35 μg/dose using a saponin adjuvant (e.g., GPI-0100; 100 μg/dose) at days 1, 15, and 29. On day 5, each animal was injected with 2.5×10^5 4T1c2 cells. Cancer loci were then allowed to grow. From days 8-50, all animals were injected daily ((qd×5)6) with either phosphate buffered saline (PBS) or 500 nmol/kg of FITC-conjugated to folic acid via a gamma carboxyl-linked ethylene diamine bridge. The animals were injected daily on days 32-50 with 20,000 U/dose of recombinant human IL-2. The animals were injected (TIW)3 with IL-2 in the same weeks as the animals were injected with folate-FITC.
The efficacy of this immunotherapy was then evaluated by monitoring tumor volume as a function of time for folate-FITC treated mice compared to control animals.

[2] = Active systemic anaphylaxis assay in guinea pigs immunized against EC90 plus GPI-0100 adjuvant; assay type: in vivo; conditions: guinea pigs immunized days 1, 8, 15 with EC90 plus 0.5 mg GPI-0100; de-sensitized days 8-12 and 15-19 with EC17 spiked with 10% (mole) Bis-FITC-eda; s.c. challenge day 22
Method: Male and female guinea pigs (1 per sex per group) were immunized three times, on Days 1, 8, and 15, with various doses of EC90 plus 0.5 mg GPI-0100. A single dose of test article (EC17+/− Bis-FITC-eda) was administered (s.c.) on Day 22. Guinea pigs were de-sensitized with multiple doses of EC 17 spiked with 10% (mole) Bis-FITC-eda on Days 8-12, and 15-19. On Day 22, these animals were s.c. challenged with the same EC17/Bis-FITC-eda formulation. Clinical observations were generally taken for 1.5-2 hours post challenge. […] Complete macroscopic postmortem examinations were performed on all animals (FIG. 9).

SMILES: Nc1nc2ncc(CNc3ccc(C(=O)NC(CCC(=O)NCCNC(=S)Nc4ccc(-c5c6ccc(=O)cc-6oc6cc(O)ccc56)c(C(=O)O)c4)C(=O)O)cc3)nc2c(=O)[nH]1 (stereo not shown) [EC17]
- tumor volume as a function of time compared to control animals ([1]; Balb/c mice immunized with KLH-FITC 35 μg/dose + GPI-0100 100 μg/dose, folate-FITC 500 nmol/kg daily plus IL-2 20,000 U/dose, early or late dosing protocol): decreased
- effect on tumor volume, early dosing protocol ([1]; folate-FITC 500 nmol/kg daily (qd×5)6 from days 8-50, IL-2 20,000 U/dose days 32-50): effective in decreasing tumor volume
- tumor volume, early versus late dosing protocol ([1]; folate-FITC 500 nmol/kg, late: days 42-60, early: days 8-50, plus IL-2): similar
- allergenicity (signs of anaphylaxis after s.c. challenge), effect of early dosing [2]: reduces allergenicity
